Laboratory results reported in patent publication US10597388B2, “Pyridazinone herbicides” (FMC CORPORATION, priority 2014, dated 2020).

Tests used:
Assay in all cases: Test D controlled growth environment herbicide test, pre- and postemergence
Type in all cases: in vivo
[1] = system: chickweed (common chickweed, Stellaria media)
Summary of the method: (§1)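 Pre-emergence: seeds sown in silt loam soil were sprayed with compound in a non-phytotoxic solvent mix containing surfactant. Post-emergence: plants at 2 to 18 cm (1- to 4-leaf stage) in peat moss/vermiculite medium got the same formulation. Visual 0–100 rating versus controls after 14 to 21 d.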

[2] = system: ryegrass, Italian (Italian ryegrass, Lolium multiflorum)
Summary of the method: as §1

[3] = system: wheat, winter (winter wheat, Triticum aestivum)
Summary of the method: as §1

[4] = system: deadnettle (henbit deadnettle, Lamium amplexicaule)
Summary of the method: as §1

[5] = system: blackgrass (Alopecurus myosuroides)
Summary of the method: as §1

[6] = system: pigweed (Amaranthus retroflexus)
Summary of the method: as §1

[7] = system: radish, wild (wild radish, Raphanus raphanistrum)
Summary of the method: as §1

[8] = system: field violet (Viola arvensis)
Summary of the method: as §1

[9] = system: oilseed rape (Brassica napus)
Summary of the method: as §1

[10] = system: wheat, spring (spring wheat, Triticum aestivum)
Summary of the method: as §1

[11] = system: Russian thistle (Salsola kali)
Summary of the method: as §1

[12] = system: field poppy (Papaver rhoeas)
Summary of the method: as §1

[13] = system: windgrass (Apera spica-venti)
Summary of the method: as §1

[14] = Postemergence, 31 g ai/ha, scale 0 to 100 (0 no effect, 100 complete control)
[15] = Postemergence, 125 g ai/ha, visual rating on scale 0 (no effect) to 100 (complete control), 14 to 21 d
[16] = Postemergence, 250 g ai/ha, scale 0 to 100 (0 no effect, 100 complete control)
[17] = Preemergence, 62 g ai/ha, scale 0 to 100 (0 no effect, 100 complete control)
[18] = Preemergence, 125 g ai/ha, scale 0 to 100 (0 no effect, 100 complete control)
[19] = Preemergence, 250 g ai/ha, scale 0 to 100 (0 no effect, 100 complete control)
[20] = postemergence, 62 g ai/ha, scale 0 to 100, 0 no effect, 100 complete control

CCC(=O)Oc1c(C)nn(C)c(=O)c1-c1c(C)sc2ccc(C)cc12 [Compound 42]
Chickweed plant response rating [1, 14]: 95 | Plant response rating, Chickweed [1, 15]: 100 | Plant response rating, Chickweed [1, 16]: 100 | Plant response rating (scale of 0 to 100), Chickweed ([1]; Preemergence, 31 g ai/ha): 100 | Plant response rating, Chickweed [1, 17]: 100 | Plant response rating, Chickweed [1, 18]: 100 | Plant response rating, Chickweed [1, 19]: 100 | Plant response rating, Chickweed [1, 20]: 100 | Ryegrass, Italian plant response rating [2, 14]: 75 | Plant response rating, Ryegrass, Italian [2, 15]: 85 | Plant response rating, Ryegrass, Italian [2, 16]: 85 | Plant response rating (scale of 0 to 100), Ryegrass, Italian ([2]; Preemergence, 31 g ai/ha): 95 | Plant response rating, Ryegrass, Italian [2, 17]: 100 | Plant response rating, Ryegrass, Italian [2, 18]: 100 | Plant response rating, Ryegrass, Italian [2, 19]: 100 | Plant response rating, Ryegrass, Italian [2, 20]: 80 | Wheat, Winter plant response rating [3, 14]: 0 | Plant response rating, Wheat, Winter [3, 15]: 10 | Plant response rating, Wheat, Winter [3, 16]: 15 | Plant response rating (scale of 0 to 100), Wheat, Winter ([3]; Preemergence, 31 g ai/ha): 0 | Plant response rating, Wheat, Winter [3, 17]: 0 | Plant response rating, Wheat, Winter [3, 18]: 5 | Plant response rating, Wheat, Winter [3, 19]: 15 | Plant response rating, Wheat, Winter [3, 20]: 5 | Deadnettle plant response rating [4, 14]: 5 | Plant response rating, Deadnettle [4, 15]: 35 | Plant response rating, Deadnettle [4, 16]: 55 | Plant response rating (scale of 0 to 100), Deadnettle ([4]; Preemergence, 31 g ai/ha): 0 | Plant response rating, Deadnettle [4, 17]: 0 | Plant response rating, Deadnettle [4, 18]: 25 | Plant response rating, Deadnettle [4, 19]: 15 | Plant response rating, Deadnettle [4, 20]: 25 | Blackgrass plant response rating [5, 14]: 75 | Plant response rating, Blackgrass [5, 15]: 80 | Plant response rating, Blackgrass [5, 16]: 85 | Plant response rating (scale of 0 to 100), Blackgrass ([5]; Preemergence, 31 g ai/ha): 80 | Plant response rating, Blackgrass [5, 17]: 80 | Plant response rating, Blackgrass [5, 18]: 95 | Blackgrass plant response rating [5, 19]: 100 | Plant response rating, Blackgrass [5, 20]: 75 | Pigweed plant response rating [6, 14]: 85 | Plant response rating, Pigweed [6, 15]: 90 | Plant response rating, Pigweed [6, 16]: 100 | Plant response rating (scale of 0 to 100), Pigweed ([6]; Preemergence, 31 g ai/ha): 90 | Plant response rating, Pigweed [6, 17]: 100 | Plant response rating, Pigweed [6, 18]: 100 | Plant response rating, Pigweed [6, 19]: 100 | Plant response rating, Pigweed [6, 20]: 90 | Radish, Wild plant response rating [7, 14]: 5 | Plant response rating, Radish, Wild [7, 15]: 20 | Plant response rating, Radish, Wild [7, 16]: 65 | Plant response rating (scale of 0 to 100), Radish, Wild ([7]; Preemergence, 31 g ai/ha): 0 | Plant response rating, Radish, Wild [7, 18]: 15 | Plant response rating, Radish, Wild [7, 19]: 60 | Plant response rating, Radish, Wild [7, 20]: 10 | Field Violet plant response rating [8, 14]: 70 | Plant response rating, Field Violet [8, 15]: 90 | Plant response rating, Field Violet [8, 16]: 90 | Plant response rating (scale of 0 to 100), Field Violet ([8]; Preemergence, 31 g ai/ha): 85 | Plant response rating, Field Violet [8, 17]: 95 | Plant response rating, Field Violet [8, 18]: 100 | Plant response rating, Field Violet [8, 19]: 100 | Plant response rating, Field Violet [8, 20]: 80 | Oilseed Rape plant response rating [9, 14]: 10 | Plant response rating, Oilseed Rape [9, 15]: 60 | Plant response rating, Oilseed Rape [9, 16]: 70 | Plant response rating (scale of 0 to 100), Oilseed Rape ([9]; Preemergence, 31 g ai/ha): 0 | Plant response rating, Oilseed Rape [9, 17]: 0 | Plant response rating, Oilseed Rape [9, 18]: 0 | Plant response rating, Oilseed Rape [9, 19]: 0 | Plant response rating, Oilseed Rape [9, 20]: 50 | Wheat, Spring plant response rating [10, 14]: 0 | Plant response rating, Wheat, Spring [10, 15]: 15 | Plant response rating, Wheat, Spring [10, 16]: 20 | Plant response rating (scale of 0 to 100), Wheat, Spring ([10]; Preemergence, 31 g ai/ha): 0 | Plant response rating, Wheat, Spring [10, 17]: 0 | Plant response rating, Wheat, Spring [10, 18]: 0 | Plant response rating, Wheat, Spring [10, 19]: 20 | Plant response rating, Wheat, Spring [10, 20]: 10 | Russian Thistle plant response rating [11, 14]: 70 | Plant response rating, Russian Thistle [11, 15]: 85 | Plant response rating, Russian Thistle [11, 16]: 90 | Plant response rating (scale of 0 to 100), Russian Thistle ([11]; Preemergence, 31 g ai/ha): 10 | Plant response rating, Russian Thistle [11, 17]: 15 | Plant response rating, Russian Thistle [11, 18]: 65 | Plant response rating, Russian Thistle [11, 19]: 75 | Plant response rating, Russian Thistle [11, 20]: 75 | Field Poppy plant response rating [12, 14]: 65 | Plant response rating, Field Poppy [12, 15]: 100 | Plant response rating, Field Poppy [12, 16]: 100 | Plant response rating (scale of 0 to 100), Field Poppy ([12]; Preemergence, 31 g ai/ha): 100 | Plant response rating, Field Poppy [12, 17]: 100 | Plant response rating, Field Poppy [12, 18]: 100 | Plant response rating, Field Poppy [12, 19]: 100 | Plant response rating, Field Poppy [12, 20]: 85 | Windgrass plant response rating [13, 14]: 70 | Plant response rating, Windgrass [13, 15]: 90 | Plant response rating, Windgrass [13, 16]: 98 | Plant response rating (scale of 0 to 100), Windgrass ([13]; Preemergence, 31 g ai/ha): 70 | Plant response rating, Windgrass [13, 17]: 85 | Plant response rating, Windgrass [13, 18]: 85 | Plant response rating, Windgrass [13, 19]: 100 | Plant response rating, Windgrass [13, 20]: 75
